Data as given in patent US20140193338A1, “COMPOUNDS FOR USE IN IMAGING, DIAGNOSING AND/OR TREATMENT OF DISEASES OF THE CENTRAL NERVOUS SYSTEM” (PIRAMAL IMAGING SA, priority 2011, published 2014).
“Also recorded” adds a separate entry of the source.

Experiments:
MAO-B [1] = assay: PET brain time activity curves (SUV) in cynomolgus monkeys; format: in vivo, cynomolgus monkey
Procedure: One monkey weighing 6.3 kg was injected i.v. with 163 MBq [^18F]rasagiline (compound F) under sevofluorane anaesthesia.
Two cynomolgus monkeys weighting 5.25 and 6.2 kg, respectively were investigated. They were injected i.v. under sevofluorane anaesthesia with 168 MBq and 174 MBq [^18F],(^2H2)rasagiline (1), respectively.

[2] = Blood radioactivity / metabolite profile by radio-HPLC after tracer injection; format: in vivo, cynomolgus monkey; conditions: for number of ^18F labelled metabolites detected: plasma, radio-HPLC, over the time of the investigation
Source text: In addition, the blood radioactivity profiles have been monitored over time using radio-HPLC measurements and were decay corrected (d.c.) (FIGS. 4 and 5).

MAO-B [3] = molecular target: T1, MAO-B (Homo sapiens, UniProt P27338); assay: Autoradiography with [^18F]rasagiline on human brain sections, blocking with excess inhibitor; format: binding
T1 construct: Autoradiography using [^18F]rasagiline on human brain slices from a healthy subject; from tissue; host or cells: human brain hemisphere cryosections (100 µm)
T1 sequence (P27338 1-520): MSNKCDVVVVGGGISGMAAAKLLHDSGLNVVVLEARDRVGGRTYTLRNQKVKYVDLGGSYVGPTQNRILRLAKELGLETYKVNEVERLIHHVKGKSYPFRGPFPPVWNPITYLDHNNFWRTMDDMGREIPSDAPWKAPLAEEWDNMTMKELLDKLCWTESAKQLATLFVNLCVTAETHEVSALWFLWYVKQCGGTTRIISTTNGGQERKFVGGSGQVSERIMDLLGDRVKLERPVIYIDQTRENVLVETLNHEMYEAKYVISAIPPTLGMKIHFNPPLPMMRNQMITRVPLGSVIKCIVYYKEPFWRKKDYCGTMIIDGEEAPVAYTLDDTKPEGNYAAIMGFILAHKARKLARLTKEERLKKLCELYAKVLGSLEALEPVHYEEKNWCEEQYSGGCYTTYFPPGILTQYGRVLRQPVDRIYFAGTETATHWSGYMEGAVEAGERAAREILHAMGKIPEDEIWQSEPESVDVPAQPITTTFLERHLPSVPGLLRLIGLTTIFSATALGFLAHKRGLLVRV
Procedure: Binding of the [^18F]rasagiline (compound of formula F) was investigated on human brain sections from normal subjects using a standard protocol.
In brief, whole brain hemispheres were cut at a 100 μm thickness in a Cryocut (Leica, Germany), thaw mounted onto gelatine glass slides and kept at −25° C. before use. Thereafter, the slides containing the regions of interest (e.g. hippocampus, thalamus) were removed and brought to room temperature. The sections were incubated with 0.2 MBq/mL [^18F] compound F in 50 mM TRIS/0.1% BSA (pH 7.4) with salts (120 mM NaCl, 5 mM KCl, 1 mM CaCl2, 1 mM MgCl2) for 90 min at room temperature and washed three times for 5 min each in 50 mM TRIS (pH 7.4). The sections were dipped once into ice cold distilled water, dried at room temperature and exposed to PhosphorImager plates (FUJI BAS 5000) overnight.

[4] = pre-treated with 0.5 mg/kg (L)-deprenyl

Row | Compound | initial uptake in whole brain relative to [^18F]rasagiline (compound F) (MAO-B [1]; i.v., PET) | decrease in uptake after deprenyl pre-treatment, Cerebellum (MAO-B [1]; [4]) [%] | decrease in uptake after deprenyl pre-treatment, Striatum (MAO-B [1]; [4]) [%] | decrease in uptake after deprenyl pre-treatment, Thalamus (MAO-B [1]; [4]) [%] | decrease in uptake after deprenyl pre-treatment, cortex (MAO-B [1]; [4]) [%] | brain elimination behaviour after initial uptake (MAO-B [1]; whole brain TAC) | metabolite corrected blood radioactivity time curve compared to the non-deuterated compound ([2]; decay corrected) | number of ^18F labelled metabolites detected [2] | specificity of the ligand (MAO-B [3]; conclusion from blocking experiments) | autoradiography signal in brain regions with known MAO-B activity (MAO-B [3]; human brain slices, healthy subject, globus pallidus, putamen, caudate, thalamus, hippocampus, 0.2 MBq/mL, 90 min) | initial brain uptake, striatal (caudate and putamen) and thalamic ROI (MAO-B [1]; i.v., PET) | initial brain uptake, whole brain (MAO-B [1]; i.v., PET) | increase of whole brain signal over time (MAO-B [1]; until the end of the observation time) | whole brain level after slight elimination (MAO-B [1]; within 15 minutes) | blocking of the [^18F]rasagiline (compound F) autoradiography signal (MAO-B [3]; excess (10 μM) of the inhibitor in the incubation solution)
1 | [2H]C([2H])(C#C)N[C@H]1c2ccccc2C[C@@H]1[18F] [compound 1, (1S,2S)-2-[^18F]fluoro-N-[(1,1-^2H2)prop-2-yn-1-yl]indan-1-amine] | comparable to that of [^18F]rasagiline (compound F) | 46 | 45 | 47 | 40 | eliminated in a manner resembling that of a reversible ligand | slower elimination; also recorded: increased blood radioactivity over time | two | – | – | – | – | – | – | –
2 | C#CCN[C@H]1c2ccccc2C[C@@H]1[18F] [compound F, reference compound] | – | – | – | – | – | – | – | eight | specifically interacting with MAO-B | high signal intensity | ca. 400 % SUV | ca. 280 % SUV | about 35 % SUV | ca. 225 % SUV | –
3 | C#CCN[C@@H]1CCc2ccccc21 [rasagiline] | – | – | – | – | – | – | – | – | – | – | – | – | – | – | completely blocked
